Experimental data as given in BigSolDB 2.1.

Details: in water

NCCS(=O)(=O)O
Details | solubility (mole fraction)
278.05 K | 0.00796
281.25 K | 0.00932
288.75 K | 0.0119
289.85 K | 0.0128
298.15 K | 0.017
305.35 K | 0.0203
308.25 K | 0.0213
310.95 K | 0.0233
314.85 K | 0.0261
318.35 K | 0.0291
321.55 K | 0.0321
331.75 K | 0.0403
340.95 K | 0.0477
345.15 K | 0.0526
350.25 K | 0.0585
353.55 K | 0.0646
